In patent US7598244B2, “[1,2,4]triazolo[1,5,a]pyrimidin-2-ylurea derivative and use thereof” (Nippon Kayaku Kabushiki Kaisha, priority 2003, dated 2009):

The compounds below were run on MHC class I molecules of T1 cells (human lymphoma cell line 174×CEM.) (assay: Effect on expression of MHC class I from T1 cells (flow cytometry, MFI)). Details: 3 days culture.
Format: cell-based
Description: Effect on Expression of MHC Class I from T1 Cells (Human Lymphoma Cell Line 174×CEM.)
Using a 96-well flat bottom microplate, T1 cells (5.7×10^3 cells/200 μl/well) were cultured in an RPMI 1640 medium (Iwaki Glass) containing 10% fetal bovine serum (hereinafter abbreviated as FBS; Iruvine Scientific) in an incubator containing 5% carbon dioxide at 37° C. for 3 days, in the presence of a test compound having each concentration obtained by dilution at a common ratio route of 10 from 400 μM. After completion of the culture, the cells were stained with fluoroisothiocyanate-labeled mouse anti-human MHC class I monoclonal antibody (an antibody produced from the cell line W6/32 (ATCC No. CRL 1991)). The mean fluorescence intensity of the stained cells (hereinafter referred to as MFI) was measured using flow cytometry FACScan (BD). The obtained value was defined as an expression level of MHC class I molecules. A test compound concentration necessary for suppressing 20% of the expression level of MHC class I molecules (EC20 value) was calculated using the following formula (1).
[formula] • Eexp: MFI of cultured cells containing test compound after being stained with antibody • Cexp: MFI of cultured cells containing no test compounds after being stained with antibody

Going from “1-(4-methoxy-1-methylbutyl)-3-[7-(4-methoxyphenyl)-[1,2,4]triazolo[1,5-a]pyrimidin-2-yl]urea [Example 333]” to `COc1cccc(C(C)NC(=O)Nc2nc3nccc(-c4cccc(OCC5CCCO5)c4)n3n2)c1` (mixture of isomers) [Example 206], the “EC20 (concentration necessary for suppressing 20% of the expression level of MHC class I molecules)” value falls from 410 nM to 220 nM (1.9-fold).

`COc1ccc(-c2ccnc3nc(NC(=O)NC(C)Cc4ccc(Cl)cc4)nn23)cc1` (racemic) [Example 142] and `COc1ccc(-c2ccnc3nc(NC(=O)NC(C)c4cccc(OS(C)(=O)=O)c4)nn23)cc1` (racemic) [Example 195] are the same in “EC20 (concentration necessary for suppressing 20% of the expression level of MHC class I molecules)” value: 60 nM for the first, 60 nM for the second.

`COc1ccc(-c2ccnc3nc(NC(=O)NC(C)c4cccc(O)c4)nn23)cc1` (racemic) [Example 196] and `COc1ccc(-c2ccnc3nc(NC(=O)NC(C)c4cccc(OC(=O)OCc5ccccc5)c4)nn23)cc1` (racemic) [Example 197] are within 1.5-fold of each other in “EC20 (concentration necessary for suppressing 20% of the expression level of MHC class I molecules)” value: 170 nM for the first, 210 nM for the second.

Going from `COc1ccc(-c2ccnc3nc(NC(=O)NC(C)c4cccc(OCC(C)C)c4)nn23)cc1` (racemic) [Example 230] to `COc1ccc(-c2ccnc3nc(NC(=O)NC(C)c4cccc(OC(C)C)c4)nn23)cc1` (racemic) [Example 231], the “EC20 (concentration necessary for suppressing 20% of the expression level of MHC class I molecules)” value falls from 220 nM to 50 nM (4.4-fold).

Going from `COc1ccc(-c2ccnc3nc(NC(=O)NC(C)CC(C)C)nn23)cc1` (racemic) [Example 235] to `COc1ccc(-c2ccnc3nc(NC(=O)NC(C)CCC(C)C)nn23)cc1` (racemic) [Example 236], the “EC20 (concentration necessary for suppressing 20% of the expression level of MHC class I molecules)” value falls from 590 nM to 80 nM (7.4-fold).

`CNC(=O)Nc1nc2nccc(-c3cccs3)n2n1` [Example 013] and `O=C(Nc1nc2nccc(-c3ccccc3)n2n1)NC1CCCCC1` [Example 014] are within 1.5-fold of each other in “EC20 (concentration necessary for suppressing 20% of the expression level of MHC class I molecules)” value: 480 nM for the first, 570 nM for the second.

First: O=C(Nc1nc2nccc(-c3cccc(Cl)c3)n2n1)NC1CCCCC1 [Example 016]
Second: COc1cccc(-c2ccnc3nc(NC(=O)NC4CCCCC4)nn23)c1 [Example 017]
The “EC20 (concentration necessary for suppressing 20% of the expression level of MHC class I molecules)” value of the first is 3.3-fold higher: 730 nM for the first, 220 nM for the second.

First: COc1cccc(-c2ccnc3nc(NC(=O)NCc4ccccc4)nn23)c1 [Example 019]
Second: O=C(Nc1ccc(O)cc1)Nc1nc2nccc(-c3cccs3)n2n1 [Example 023]
The “EC20 (concentration necessary for suppressing 20% of the expression level of MHC class I molecules)” value of the first is 2.6-fold higher: 1100 nM for the first, 430 nM for the second.

First: O=C(NCc1ccccc1)Nc1nc2nccc(-c3cccc(O)c3)n2n1 [Example 025]
Second: CNC(=O)Nc1nc2nccc(-c3ccc(OC)cc3)n2n1 [Example 026]
The “EC20 (concentration necessary for suppressing 20% of the expression level of MHC class I molecules)” value of the first is 1.8-fold lower: 500 nM for the first, 900 nM for the second.

First: O=C(Nc1nc2nccc(-c3cccs3)n2n1)NC1CCCC1 [Example 028]
Second: CCNC(=O)Nc1nc2nccc(-c3ccc(OC)cc3)n2n1 [Example 031]
The “EC20 (concentration necessary for suppressing 20% of the expression level of MHC class I molecules)” value of the first is 2.6-fold lower: 152 nM for the first, 400 nM for the second.

Compared with `CCCCNC(=O)Nc1nc2nccc(-c3ccc(OC)cc3)n2n1` [Example 032], `COc1ccc(-c2ccnc3nc(NC(=O)NC45CC6CC(CC(C6)C4)C5)nn23)cc1` [Example 035] is 1.5-fold higher in “EC20 (concentration necessary for suppressing 20% of the expression level of MHC class I molecules)” value: 250 nM for the first, 380 nM for the second.

`COc1cccc(-c2ccnc3nc(NC(=O)NC(C)C)nn23)c1` [Example 044] and `CC(C)NC(=O)Nc1nc2nccc(-c3ccc4c(c3)CCO4)n2n1` [Example 046] are within 1.5-fold of each other in “EC20 (concentration necessary for suppressing 20% of the expression level of MHC class I molecules)” value: 480 nM for the first, 340 nM for the second.

`C[C@H](NC(=O)Nc1nc2nccc(-c3cccs3)n2n1)C(=O)OC(C)(C)C` [Example 050] and `CC(C)NC(=O)Nc1nc2nccc(-c3ccc(O)cc3)n2n1` [Example 053] are within 1.5-fold of each other in “EC20 (concentration necessary for suppressing 20% of the expression level of MHC class I molecules)” value: 330 nM for the first, 370 nM for the second.

`COc1ccc(-c2ccnc3nc(NC(=O)N[C@H](C(=O)O)C(C)C)nn23)cc1` [Example 054] and `CNC(=O)[C@@H](NC(=O)Nc1nc2nccc(-c3ccc(OC)cc3)n2n1)C(C)C` [Example 055] are within 1.5-fold of each other in “EC20 (concentration necessary for suppressing 20% of the expression level of MHC class I molecules)” value: 630 nM for the first, 690 nM for the second.

`COc1ccc(-c2ccnc3nc(NC(=O)N[C@H](C(=O)N(C)C)C(C)C)nn23)cc1` [Example 056] and `COc1ccc(-c2ccnc3nc(NC(=O)NCCN4CCOCC4)nn23)cc1` [Example 064] are within 1.5-fold of each other in “EC20 (concentration necessary for suppressing 20% of the expression level of MHC class I molecules)” value: 550 nM for the first, 670 nM for the second.

First: COc1ccc(-c2ccnc3nc(NC(=O)NCCc4ccccn4)nn23)cc1 [Example 065]
Second: COc1ccc(-c2ccnc3nc(NC(=O)NCCCn4ccnc4)nn23)cc1 [Example 066]
The “EC20 (concentration necessary for suppressing 20% of the expression level of MHC class I molecules)” value of the first is 2.1-fold lower: 350 nM for the first, 720 nM for the second.

First: O=C(Nc1nc2nccc(-c3ccc(O)c(O)c3)n2n1)NC1CCCCC1 [Example 068]
Second: COc1ccc(-c2ccnc3nc(NC(=O)N[C@H](C(=O)N4CCOCC4)C(C)C)nn23)cc1 [Example 070]
The “EC20 (concentration necessary for suppressing 20% of the expression level of MHC class I molecules)” value of the first is 3.4-fold lower: 140 nM for the first, 480 nM for the second.

`COc1ccc(-c2ccnc3nc(NC(=O)N[C@H](C(=O)NC4CCN(Cc5ccccc5)CC4)C(C)C)nn23)cc1` [Example 074] and `COc1ccc(-c2ccnc3nc(NC(=O)N[C@H](C(=O)NCc4cccnc4)C(C)C)nn23)cc1` [Example 078] are within 1.5-fold of each other in “EC20 (concentration necessary for suppressing 20% of the expression level of MHC class I molecules)” value: 550 nM for the first, 670 nM for the second.

`COc1ccc(-c2ccnc3nc(NC(=O)N[C@H](C(=O)NCCN4CCOCC4)C(C)C)nn23)cc1` [Example 079] and `COc1ccc(-c2ccnc3nc(NC(=O)N[C@H](C(=O)NCCc4ccccn4)C(C)C)nn23)cc1` [Example 080] are within 1.5-fold of each other in “EC20 (concentration necessary for suppressing 20% of the expression level of MHC class I molecules)” value: 970 nM for the first, 710 nM for the second.

First: COc1ccc(-c2ccnc3nc(NC(=O)NCc4ccccn4)nn23)cc1 [Example 083]
Second: CC(C)NC(=O)Nc1nc2nccc(-c3cccc(O)c3)n2n1 [Example 084]
The “EC20 (concentration necessary for suppressing 20% of the expression level of MHC class I molecules)” value of the first is 2.1-fold higher: 870 nM for the first, 420 nM for the second.

`O=C(Nc1nc2nccc(-c3cccc(O)c3)n2n1)NC1CCCCC1` [Example 085] and `COc1ccc(-c2ccnc3nc(NC(=O)NC(C)C)nn23)cc1OC` [Example 086] are within 1.5-fold of each other in “EC20 (concentration necessary for suppressing 20% of the expression level of MHC class I molecules)” value: 400 nM for the first, 340 nM for the second.

First: CC(C)NC(=O)Nc1nc2nccc(-c3ccc4c(c3)OCO4)n2n1 [Example 087]
Second: COc1ccc(-c2ccnc3nc(NC(=O)N[C@H](C(=O)Nc4ccccc4)C(C)C)nn23)cc1 [Example 088]
The “EC20 (concentration necessary for suppressing 20% of the expression level of MHC class I molecules)” value of the first is 5.2-fold higher: 780 nM for the first, 150 nM for the second.

First: COc1ccc(-c2ccnc3nc(NC(=O)N[C@H](C(=O)NCc4ccccc4)C(C)C)nn23)cc1 [Example 089]
Second: CCNC(=O)[C@@H](NC(=O)Nc1nc2nccc(-c3ccc(OC)cc3)n2n1)C(C)C [Example 090]
The “EC20 (concentration necessary for suppressing 20% of the expression level of MHC class I molecules)” value of the first is 1.9-fold lower: 210 nM for the first, 400 nM for the second.

`CCCCNC(=O)[C@@H](NC(=O)Nc1nc2nccc(-c3ccc(OC)cc3)n2n1)C(C)C` [Example 091] and `COc1ccc(-c2ccnc3nc(NC(=O)N[C@H](C(=O)NCC4CCCCC4)C(C)C)nn23)cc1` [Example 092] are within 1.5-fold of each other in “EC20 (concentration necessary for suppressing 20% of the expression level of MHC class I molecules)” value: 210 nM for the first, 200 nM for the second.

Compared with `COc1ccc(-c2ccnc3nc(NC(=O)N[C@H](C(=O)N(C)Cc4ccccc4)C(C)C)nn23)cc1` [Example 093], `COc1ccc(-c2ccnc3nc(NC(=O)N[C@H](C(=O)NC4CCCCC4)C(C)C)nn23)cc1` [Example 094] is 3.5-fold lower in “EC20 (concentration necessary for suppressing 20% of the expression level of MHC class I molecules)” value: 700 nM for the first, 200 nM for the second.

`COCCCNC(=O)[C@@H](NC(=O)Nc1nc2nccc(-c3ccc(OC)cc3)n2n1)C(C)C` [Example 095] and `COCCNC(=O)[C@@H](NC(=O)Nc1nc2nccc(-c3ccc(OC)cc3)n2n1)C(C)C` [Example 096] are within 1.5-fold of each other in “EC20 (concentration necessary for suppressing 20% of the expression level of MHC class I molecules)” value: 630 nM for the first, 550 nM for the second.

Compared with `COCCN(CCOC)C(=O)[C@@H](NC(=O)Nc1nc2nccc(-c3ccc(OC)cc3)n2n1)C(C)C` [Example 097], `COC(=O)[C@H](C)NC(=O)[C@@H](NC(=O)Nc1nc2nccc(-c3ccc(OC)cc3)n2n1)C(C)C` [Example 098] is 3.4-fold lower in “EC20 (concentration necessary for suppressing 20% of the expression level of MHC class I molecules)” value: 470 nM for the first, 140 nM for the second.

`COc1ccc(-c2ccnc3nc(NC(=O)NCC4CCCCC4)nn23)cc1` [Example 099] was tested, and the “EC20 (concentration necessary for suppressing 20% of the expression level of MHC class I molecules)” value was 440 nM.
